The target in test [1] is T1, baculovirus-expressed ALK (Homo sapiens, UniProt Q9UM73).
T1 construct: host or cells: baculovirus expression system
The experiment in a line: ALK Kinase Assay (ELISA-type, time-resolved fluorescence). The test is classed as biochemical. In a few lines: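 Wells were coated with phospholipase C-γ at 10 μg/mL in Tris-buffered saline. Adding 30 ng/ml enzyme started the reaction, which ran at 37° C for 15 minutes before Eu-N1 PT66 antibody detection. Percent inhibition versus log10 concentration gave IC50 by variable-slope fit.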
(In general: ELISA stands for enzyme-linked immunosorbent assay.)

The target of test [2] is T2, c-Met (cytoplasmic domain) (Homo sapiens, UniProt P08581).
T2 construct: 10 ng/mL c-Met (cytoplasmic domain, Invitrogen Corporation #PV3143); purchased Invitrogen Corporation PV3143
The test is described as follows: c-Met Kinase Assay (same methods as for ALK, with modifications). The test is classed as biochemical. In outline:
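Steps: coat wells with PLC-γ (10 μg/mL, Tris-buffered saline); add 10 ng/mL c-Met cytoplasmic domain to initiate; incubate 15 min, 37° C; detect phosphoproduct via Eu-N1 PT66 antibody.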

Where [3] appears, read: ALK kinase inhibition, 1 μM ATP, read-out: ALK Activity.
The mark [4] stands for this setting: c-Met kinase inhibition, 1 μM ATP, read-out: cMet Activity.
Setting [5] is: ALK kinase inhibition, 1 μM ATP (Km level), read-out: ALK Activity.
[6] abbreviates: c-Met kinase inhibition, 1 μM ATP (Km level), read-out: cMet Activity.
The mark [7] stands for this setting: 1 μM ATP (Km level), 30 ng/ml ALK, 37° C., 15 minutes, read-out: ALK Activity (ALK kinase inhibition, IC50 class).
[8] abbreviates: 1 μM ATP (Km level), 10 ng/mL c-Met, read-out: cMet Activity (c-Met kinase inhibition, IC50 class).
Setting [9] is: 1 μM ATP (Km level), read-out: ALK Activity (ALK Kinase Inhibition, IC50).
Setting [10] is: 1 μM ATP (Km level), read-out: cMet Activity (c-Met Kinase Inhibition, IC50).

pIC50: −log10 of the molar value. Like-named read-outs stand apart in the source and are kept apart here.

Experimental findings from patent US8148391B2 (Cephalon, Inc., priority 2006, dated 2012) are described below.

T1 sequence (Q9UM73 19-1620): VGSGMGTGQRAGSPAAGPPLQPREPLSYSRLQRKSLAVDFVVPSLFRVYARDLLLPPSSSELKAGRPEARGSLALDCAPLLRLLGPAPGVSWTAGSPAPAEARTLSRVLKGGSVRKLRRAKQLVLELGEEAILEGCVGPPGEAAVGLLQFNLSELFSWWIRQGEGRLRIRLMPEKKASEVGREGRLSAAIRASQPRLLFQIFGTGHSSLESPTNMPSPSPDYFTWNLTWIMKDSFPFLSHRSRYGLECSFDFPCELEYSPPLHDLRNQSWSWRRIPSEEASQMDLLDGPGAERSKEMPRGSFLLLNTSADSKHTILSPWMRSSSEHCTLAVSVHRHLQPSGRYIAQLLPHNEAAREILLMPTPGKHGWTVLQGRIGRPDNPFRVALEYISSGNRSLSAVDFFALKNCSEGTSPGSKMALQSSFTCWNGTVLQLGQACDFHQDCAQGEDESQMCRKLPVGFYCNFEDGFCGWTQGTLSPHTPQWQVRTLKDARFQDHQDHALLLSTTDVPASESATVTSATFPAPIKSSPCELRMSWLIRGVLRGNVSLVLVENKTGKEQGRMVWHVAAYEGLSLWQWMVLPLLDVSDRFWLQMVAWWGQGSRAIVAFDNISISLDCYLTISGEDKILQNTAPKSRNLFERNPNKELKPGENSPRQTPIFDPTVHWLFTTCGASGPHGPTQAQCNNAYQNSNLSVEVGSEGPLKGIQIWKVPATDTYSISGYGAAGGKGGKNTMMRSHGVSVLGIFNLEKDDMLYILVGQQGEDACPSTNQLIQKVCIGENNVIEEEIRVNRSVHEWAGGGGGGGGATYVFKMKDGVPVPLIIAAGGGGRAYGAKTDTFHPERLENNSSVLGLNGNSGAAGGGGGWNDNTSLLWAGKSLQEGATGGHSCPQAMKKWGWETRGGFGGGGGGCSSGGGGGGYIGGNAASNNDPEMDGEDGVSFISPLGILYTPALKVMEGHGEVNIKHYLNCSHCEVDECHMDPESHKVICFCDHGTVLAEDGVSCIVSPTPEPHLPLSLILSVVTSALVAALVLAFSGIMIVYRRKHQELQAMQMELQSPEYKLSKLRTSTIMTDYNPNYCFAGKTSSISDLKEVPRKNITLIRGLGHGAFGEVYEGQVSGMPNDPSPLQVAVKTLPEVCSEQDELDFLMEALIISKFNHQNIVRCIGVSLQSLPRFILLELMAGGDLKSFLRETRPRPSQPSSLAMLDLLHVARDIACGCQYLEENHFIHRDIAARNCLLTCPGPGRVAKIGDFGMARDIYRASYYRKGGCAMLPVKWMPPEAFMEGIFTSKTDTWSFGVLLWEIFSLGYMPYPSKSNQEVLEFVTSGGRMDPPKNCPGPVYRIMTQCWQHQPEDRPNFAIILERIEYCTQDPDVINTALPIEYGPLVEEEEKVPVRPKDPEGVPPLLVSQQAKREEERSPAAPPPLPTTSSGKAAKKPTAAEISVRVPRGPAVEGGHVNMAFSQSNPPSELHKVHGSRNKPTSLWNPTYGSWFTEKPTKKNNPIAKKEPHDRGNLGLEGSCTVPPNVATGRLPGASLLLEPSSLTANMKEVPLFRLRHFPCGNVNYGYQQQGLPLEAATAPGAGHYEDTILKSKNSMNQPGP
T2 sequence (P08581 956-1390 limits assumed): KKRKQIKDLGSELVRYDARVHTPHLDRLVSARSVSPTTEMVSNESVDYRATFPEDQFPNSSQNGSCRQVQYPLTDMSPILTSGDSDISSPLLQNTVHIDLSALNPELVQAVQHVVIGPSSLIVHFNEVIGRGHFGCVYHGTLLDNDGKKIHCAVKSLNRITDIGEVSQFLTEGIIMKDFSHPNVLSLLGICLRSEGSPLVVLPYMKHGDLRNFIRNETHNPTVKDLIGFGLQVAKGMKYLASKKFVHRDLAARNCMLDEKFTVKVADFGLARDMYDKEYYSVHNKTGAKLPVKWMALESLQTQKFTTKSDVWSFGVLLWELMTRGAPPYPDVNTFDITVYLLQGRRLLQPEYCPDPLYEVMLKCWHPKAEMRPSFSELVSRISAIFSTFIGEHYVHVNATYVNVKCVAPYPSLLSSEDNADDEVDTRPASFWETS

In the case of `CCN1CC(=O)Nc2cc(Nc3ncc(Cl)c(Nc4c(C)csc4C(=O)NC)n3)ccc2C1` [Example 1865, 3-[5-Chloro-2-(4-ethyl-2-oxo-2,3,4,5-tetrahydro-1H-benzo[e][1,4]diazepin-8-ylamino)-pyrimidin-4-ylamino]-4-methyl-thiophene-2-carboxylic acid methylamide], the pIC50 in test [1] (setting [3]) and in test [2] (setting [4]) was 6.00 to 7.00 in each case.

On to `COc1cc(N2CCOCC2)ccc1Nc1nc(Nc2ccc3c(c2)N(CCN(C)C)CCCC3(C)C)ncc1Cl` [Example 1641, 5-Chloro-N*2*-[1-(2-dimethylamino-ethyl)-5,5-dimethyl-2,3,4,5-tetrahydro-1H-benzo[b]azepin-8-yl]-N*4*-(2-methoxy-4-morpholin-4-yl-phenyl)-pyrimidine-2,4-diamine], for which the pIC50 in test [1] (setting [3]) is above 7.00; in test [2] (setting [4]), 5.00 to 6.00.

For the compound `COc1cc2c(cc1Nc1ncc(Cl)c(N[C@@H]3CCCC[C@H]3NS(C)(=O)=O)n1)CCN(CC(F)(F)F)CC2` [Example 248, N-((1R,2R)-2-{5-Chloro-2-[8-methoxy-3-(2,2,2-trifluoro-ethyl)-2,3,4,5-tetrahydro-1H-benzo[d]azepin-7-ylamino]-pyrimidin-4-ylamino}-cyclohexyl)-methanesulfonamide], the pIC50 in test [1] (setting [5]) is above 7.00; in test [2] (setting [6]), below 5.00.

Take `CCN1C(=O)C(NC(=O)C(F)(F)F)CCc2c1ccc(Nc1ncc(Cl)c(Nc3ccccc3S(=O)(=O)C(C)C)n1)c2OC` (stereo not shown) [Example 1333, N-(7-{5-Chloro-4-[2-(propane-2-sulfonyl)-phenylamino]-pyrimidin-2-ylamino}-1-ethyl-6-methoxy-2-oxo-2,3,4,5-tetrahydro-1H-benzo[b]azepin-3-yl)-2,2,2-trifluoro-acetamide]: the pIC50 in test [1] (setting [7]) was above 7.00; in test [2] (setting [8]), below 5.00.

As to `COc1cc2c(cc1Nc1ncc(Cl)c(Nc3ccccc3S(=O)(=O)N(C)C)n1)CCN(CC(=O)N1CCN(C)CC1)CC2` [Example 1538, 2-(5-Chloro-2-{8-methoxy-3-[2-(4-methyl-piperazin-1-yl)-2-oxo-ethyl]-2,3,4,5-tetrahydro-1H-3-benzazepin-7-ylamino}-pyrimidin-4-ylamino)-N,N-dimethyl-benzenesulfonamide], the pIC50 in test [1] (setting [3]) is above 7.00; in test [2] (setting [4]), 5.00 to 6.00.

For `CNC(=O)c1cccc(F)c1Nc1nc(Nc2ccc3c(c2)-c2nccn2CCC3)ncc1Cl` [Example 1844, 2-[5-Chloro-2-(5,6-dihydro-4H-1,3a-diaza-benzo[e]azulen-9-ylamino)-pyrimidin-4-ylamino]-3-fluoro-N-methyl-benzamide], the pIC50 in test [1] (setting [3]) and in test [2] (setting [4]) was above 7.00 each time.

With `COCC(COC)N1CCc2cc(Nc3ncc(Cl)c(N[C@H]4[C@@H](C(N)=O)[C@@H]5C=C[C@H]4C5)n3)c(OC)cc2CC1` [Example 815, (1S,2S,3R,4R)-3-{5-Chloro-2-[8-methoxy-3-(2-methoxy-1-methoxymethyl-ethyl)-2,3,4,5-tetrahydro-1H-benzo[d]azepin-7-ylamino]-pyrimidin-4-ylamino}-bicyclo[2.2.1]hept-5-ene-2-carboxylic acid amide], the figures for the pIC50 in test [1] (setting [9]) and in test [2] (setting [10]) were above 7.00 and below 5.00, respectively.

As to `CC(C)S(=O)(=O)c1cccc(F)c1Nc1nc(Nc2ccc3c(c2)NC(=O)CCC3)ncc1Cl` [Example 1255, 8-{5-Chloro-4-[2-fluoro-6-(propane-2-sulfonyl)-phenylamino]-pyrimidin-2-ylamino}-1,3,4,5-tetrahydro-1-benzazepin-2-one], the figures for the pIC50 in test [1] (setting [7]) and in test [2] (setting [8]) were 6.00 to 7.00 and 5.00 to 6.00, respectively.

Take `CNC(=O)c1cccc(Cl)c1Nc1nc(Nc2ccc3c(c2)CN(C)C(=O)CC3)ncc1Cl` [Example 1805, 3-Chloro-2-[5-chloro-2-(2-methyl-3-oxo-2,3,4,5-tetrahydro-1H-benzo[c]azepin-8-ylamino)-pyrimidin-4-ylamino]-N-methyl-benzamide]: the figures for the pIC50 in test [1] (setting [3]) and in test [2] (setting [4]) were above 7.00 and 6.00 to 7.00, respectively.

`CNC(=O)c1cccc(Cl)c1Nc1nc(Nc2ccc3c(c2)CCC(N2CCC(N4CCN(C)CC4)CC2)CC3)ncc1Cl` (stereo not shown) [Example 1488, 3-Chloro-2-(5-chloro-2-{7-[4-(4-methyl-piperazin-1-yl)-piperidin-1-yl]-6,7,8,9-tetrahydro-5H-benzocyclohepten-2-ylamino}-pyrimidin-4-ylamino)-N-methyl-benzamide]: the pIC50 in test [1] (setting [3]) is 6.00 to 7.00; in test [2] (setting [4]), above 7.00.

Take `CN(C)S(=O)(=O)c1ccccc1Nc1nc(Nc2ccc3c(c2)CCC(O)CC3)ncc1Cl` (stereo not shown) [Example 1033, 2-[5-Chloro-2-(7-hydroxy-6,7,8,9-tetrahydro-5H-benzocyclohepten-2-ylamino)-pyrimidin-4-ylamino]-N,N-dimethyl-benzenesulfonamide]: the pIC50 in test [1] (setting [7]) is above 7.00; in test [2] (setting [8]), 6.00 to 7.00.

Turning to `CNC(=O)c1c(F)cccc1Nc1nc(Nc2ccc3c(c2)CCOC(=O)N3C)ncc1Cl` [Example 1756, 2-[5-Chloro-2-(5-methyl-6-oxo-5,6,8,9-tetrahydro-7-oxa-5-aza-benzocyclohepten-2-ylamino)-pyrimidin-4-ylamino]-6-fluoro-N-methyl-benzamide], the pIC50 in test [1] (setting [3]) and in test [2] (setting [4]) was above 7.00 each time.

Turning to `COc1cc2c(cc1Nc1ncc(Cl)c(Nc3ccccc3S(=O)(=O)C(C)C)n1)CCC(N1CCOCC1)CC2` (stereo not shown) [Example 1050, 5-Chloro-N*2*-(3-methoxy-7-morpholin-4-yl-6,7,8,9-tetrahydro-5H-benzocyclohepten-2-yl)-N*4*-[2-(propane-2-sulfonyl)-phenyl]-pyrimidine-2,4-diamine], the results for the pIC50 in test [1] (setting [7]) and in test [2] (setting [8]) were above 7.00 and below 5.00, respectively.

For `CNC(=O)c1cccc(Cl)c1Nc1nc(Nc2ccc3c(c2)CNC(=O)CC3)ncc1Cl` [Example 1796, 3-Chloro-2-[5-chloro-2-(3-oxo-2,3,4,5-tetrahydro-1H-benzo[c]azepin-8-ylamino)-pyrimidin-4-ylamino]-N-methylbenzamide], the values for the pIC50 in test [1] (setting [3]) and in test [2] (setting [4]) were 6.00 to 7.00 and above 7.00, respectively.

For the compound `CCN1CCN(CC)c2cc(Nc3ncc(Cl)c(Nc4ccc5c(c4)CN(CCOC)CCS5)n3)ccc2C1` [Example 733, 5-Chloro-N(2)-(1,4-diethyl-2,3,4,5-tetrahydro-1H-benzo[e][1,4]diazepin-8-yl)-N(4)-[8-(2-methoxy-ethyl)-6,7,8,9-tetrahydro-5-thia-8-aza-benzocyclohepten-2-yl]-pyrimidine-2,4-diamine], the pIC50 was above 7.00 in test [1] (setting [9]) and 5.00 to 6.00 in test [2] (setting [10]).

Regarding `CCN1CCN(C(C)=O)c2cc(Nc3ncc(Cl)c(Nc4c(F)cccc4C(=O)NC)n3)ccc2C1` [Example 1879, 2-[2-(1-Acetyl-4-ethyl-2,3,4,5-tetrahydro-1H-benzo[e][1,4]diazepin-8-ylamino)-5-chloro-pyrimidin-4-ylamino]-3-fluoro-N-methyl-benzamide], the pIC50 is 6.00 to 7.00 in test [1] (setting [5]) and above 7.00 in test [2] (setting [6]).

Take `CN1CCN(C)c2cccc(Nc3ncc(Cl)c(Nc4ccccc4NS(C)(=O)=O)n3)c2C1=O` [Example 215, N-{2-[5-Chloro-2-(1,4-dimethyl-5-oxo-2,3,4,5-tetrahydro-1H-benzo[e][1,4]diazepin-6-ylamino)-pyrimidin-4-ylamino]-phenyl}-methanesulfonamide]: the pIC50 in test [1] (setting [5]) and in test [2] (setting [6]) was below 5.00 throughout.
